{"source": "patent US20200008825A1", "about": "“SUSTAINED INTRATONSILLAR DRUG DELIVERY WITH NEEDLE ARRAY” (SOUTHERN RESEARCH INSTITUTE, priority 2017, published 2020)", "tested_on": "CD3 positive T-cells in rabbit tonsils", "test": "percentage of CD3 positive T-cells in rabbit tonsils injected with mometasone versus control (FIG. 11)", "format": "in vivo", "description": "FIG. 11 includes a graph illustrating a percentage of cluster-of-differentiation-3 (CD3) T-cell co-receptors in a rabbit when treated with mometasone versus a control. Referring now to FIG. 11, a graph is shown illustrating a percentage of cluster-of-differentiation-3 (CD3) T-cell co-receptors in a rabbit when treated with mometasone versus a control. In immunology, the CD3 T-cell co-receptor helps to activate both the cytotoxic T-Cell (CD8+ naive T cells) and also T helper cells (CD4+ naive T cells). CD3 consists of a protein complex and is composed of four distinct chains.", "data": [{"molecule": "C[C@@H]1C[C@H]2[C@@H]3CCC4=CC(=O)C=C[C@]4(C)[C@@]3(Cl)[C@@H](O)C[C@]2(C)[C@@]1(O)C(=O)CCl", "note": "[mometasone]", "values": [{"measurement": "CD3 positive T-cells (percentage)", "value": "significantly lower"}]}]}
